Measured values published in ChEMBL document CHEMBL3639097, “2-aryl imidazo[1,2-a]pyridine-3-acetamide derivatives, preparation methods and uses thereof” (2015).

What follows are compounds tested against Translocator protein (Rattus norvegicus, UniProt P16257) (assay: Competitive Binding Assay: Competitive Binding Test of Drug to the Receptor (Rat Heart TSPO) and Radioligand (3H-PK11195): (1) tubes were placed in reaction condition of 30 C.(2) all tubes were added with 20 ug of receptor protein in order;(3) the test tubes were added in order with 20 uL of drugs in certain concentrations;(4) the non-specific binding tubes were added with 20 uL of non-tagged ligand (PK11195), the final concentration of the non-tagged ligand was 0.1 mM, pre-reacted for 30 min;(5) all tubes were added in order with 25 uL 3H-PK11195, the final concentration of the labeled ligand was 1.5 nM;(6) Tris-HCl Buffer pH7.4 was used to complement the reaction volumes of all tubes to reach 200 uL;(7) the reaction was performed under 30 C. reaction condition for 1 h;(8) Then samples were applied to 49-type glass fibre filter, vacuum suction filtered, then washed with 2 ml ice-cold Tris-HCl buffer solution (50 mM Tris-HCl buffer solution, 1 mM EDTA, 5 mM MgCl2, 1 mM PMSF, 0.1% NaN3.).

Point of comparison: `CCN(Cc1ccccc1)C(=O)Cc1c(-c2ccc(Cl)cc2)nc2cc(C)ccn12`, IC50 16.9 nM. Against it:
- CCN(Cc1ccccn1)C(=O)Cc1c(-c2ccc(Cl)c(Cl)c2)nc2cc(C)ccn12 — within 1.5-fold, 21.9 nM
- CCN(Cc1ccncc1)C(=O)Cc1c(-c2ccc(Cl)c(Cl)c2)nc2cc(C)ccn12 — 1.5-fold higher, 26 nM
- COCCN(Cc1ccccn1)C(=O)Cc1c(-c2ccc(Cl)c(Cl)c2)nc2cc(C)ccn12 — within 1.5-fold, 15.6 nM

Point of comparison: `CCN(Cc1ccccc1)C(=O)Cc1c(-c2ccc(Cl)cc2)nc2cc(C)ccn12`, Ki 7.17 nM. Against it:
- CCN(Cc1ccccn1)C(=O)Cc1c(-c2ccc(Cl)c(Cl)c2)nc2cc(C)ccn12 — within 1.5-fold, 9.34 nM
- CCN(Cc1ccncc1)C(=O)Cc1c(-c2ccc(Cl)c(Cl)c2)nc2cc(C)ccn12 — 1.5-fold higher, 11.1 nM
- COCCN(Cc1ccccn1)C(=O)Cc1c(-c2ccc(Cl)c(Cl)c2)nc2cc(C)ccn12 — within 1.5-fold, 6.66 nM
